Results reported in ChEMBL document CHEMBL1909046, “DrugMatrix in vitro pharmacology data”.

Tests used:
[1] = target: T1, C-X-C chemokine receptor type 2 (Homo sapiens, UniProt P25025); format: cell membranes, CHO-K1, Membrane; details: cho-k1; note: in other assays of this panel Not Active means under 50% inhibition at 10 µM
T1 sequence (P25025 whole entry): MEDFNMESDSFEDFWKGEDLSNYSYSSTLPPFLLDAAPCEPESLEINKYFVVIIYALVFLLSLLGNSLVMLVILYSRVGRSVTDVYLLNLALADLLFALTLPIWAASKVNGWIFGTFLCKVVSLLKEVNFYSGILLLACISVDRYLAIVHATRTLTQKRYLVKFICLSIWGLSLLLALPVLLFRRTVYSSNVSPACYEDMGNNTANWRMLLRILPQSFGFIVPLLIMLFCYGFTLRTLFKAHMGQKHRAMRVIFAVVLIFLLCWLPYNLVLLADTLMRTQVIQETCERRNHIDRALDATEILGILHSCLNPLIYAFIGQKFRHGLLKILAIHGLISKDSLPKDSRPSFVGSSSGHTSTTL

[2] = target: Platelet-activating factor receptor (Homo sapiens, UniProt P25105); format: tissue-based; note: in other assays of this panel Not Active means under 50% inhibition at 10 µM
[3] = target: Vascular endothelial growth factor receptor 1 (Homo sapiens, UniProt P17948); format: cell-based; details: huvec; note: in other assays of this panel Not Active means under 50% inhibition at 10 µM
D(4) dopamine receptor = target: T2, D(4) dopamine receptor (Homo sapiens, UniProt P21917); test: DRUGMATRIX: Dopamine D4.2 radioligand binding (ligand: [3H] Spiperone); format: cell membranes, CHO-K1, Membrane; details: cho-k1; Not Active = under 50% inhibition at 10 µM
T2 sequence (P21917 whole entry): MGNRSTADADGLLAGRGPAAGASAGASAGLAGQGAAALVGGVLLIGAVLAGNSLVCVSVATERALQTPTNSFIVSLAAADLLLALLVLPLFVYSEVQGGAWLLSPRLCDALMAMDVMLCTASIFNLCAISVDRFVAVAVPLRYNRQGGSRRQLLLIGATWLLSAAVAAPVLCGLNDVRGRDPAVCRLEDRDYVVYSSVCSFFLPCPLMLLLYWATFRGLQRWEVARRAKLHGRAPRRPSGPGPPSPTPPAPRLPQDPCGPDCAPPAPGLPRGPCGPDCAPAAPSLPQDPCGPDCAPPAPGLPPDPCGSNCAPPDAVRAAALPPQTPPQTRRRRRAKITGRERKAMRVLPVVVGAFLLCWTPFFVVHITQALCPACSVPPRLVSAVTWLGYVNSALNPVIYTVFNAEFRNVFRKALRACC

[4] = target: T3, C-C chemokine receptor type 4 (Homo sapiens, UniProt P51679); format: cell membranes, Chem-1, Membrane; details: chem-1; note: in other assays of this panel Not Active means under 50% inhibition at 10 µM
T3 sequence (P51679 whole entry): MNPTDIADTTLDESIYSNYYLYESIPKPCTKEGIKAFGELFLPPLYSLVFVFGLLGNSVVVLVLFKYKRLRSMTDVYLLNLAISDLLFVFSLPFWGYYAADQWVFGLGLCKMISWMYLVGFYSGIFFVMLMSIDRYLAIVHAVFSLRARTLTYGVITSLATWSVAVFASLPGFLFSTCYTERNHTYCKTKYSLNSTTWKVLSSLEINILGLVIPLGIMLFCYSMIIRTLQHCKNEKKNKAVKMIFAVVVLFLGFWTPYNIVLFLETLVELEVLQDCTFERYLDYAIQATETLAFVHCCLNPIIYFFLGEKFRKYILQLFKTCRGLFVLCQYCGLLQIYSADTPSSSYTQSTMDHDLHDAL

[5] = target: Aldo-keto reductase family 1 member B1 (Rattus norvegicus, UniProt P07943); test: biochemical; format: tissue-based, Lens of camera-type eye
[6] = target: T4, Alpha-2C adrenergic receptor (Homo sapiens, UniProt P18825); test: DRUGMATRIX: Adrenergic Alpha-2C radioligand binding (ligand: [3H] MK-912); format: cell membranes, Sf9, Membrane; details: sf9
T4 sequence (P18825 whole entry): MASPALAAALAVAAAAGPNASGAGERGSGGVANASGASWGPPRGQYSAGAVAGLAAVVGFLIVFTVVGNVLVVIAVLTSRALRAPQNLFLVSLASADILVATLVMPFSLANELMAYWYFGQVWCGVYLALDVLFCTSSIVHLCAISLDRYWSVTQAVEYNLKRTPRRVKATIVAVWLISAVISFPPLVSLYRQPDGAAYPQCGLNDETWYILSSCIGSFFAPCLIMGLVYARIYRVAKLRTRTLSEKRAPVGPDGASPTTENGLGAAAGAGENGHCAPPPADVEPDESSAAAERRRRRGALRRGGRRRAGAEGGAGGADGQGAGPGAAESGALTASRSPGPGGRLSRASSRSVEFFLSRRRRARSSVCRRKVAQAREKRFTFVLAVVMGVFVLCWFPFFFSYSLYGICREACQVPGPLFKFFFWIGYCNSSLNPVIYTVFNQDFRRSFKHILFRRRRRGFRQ

[7] = DRUGMATRIX: ATPase, Na+/K+ enzyme inhibition (substrate: ATP); format: tissue-based, Sus scrofa, Heart; details: Not Active = under 50% inhibition at 10 µM

Sequence of Vascular endothelial growth factor receptor 1 (P17948 whole entry): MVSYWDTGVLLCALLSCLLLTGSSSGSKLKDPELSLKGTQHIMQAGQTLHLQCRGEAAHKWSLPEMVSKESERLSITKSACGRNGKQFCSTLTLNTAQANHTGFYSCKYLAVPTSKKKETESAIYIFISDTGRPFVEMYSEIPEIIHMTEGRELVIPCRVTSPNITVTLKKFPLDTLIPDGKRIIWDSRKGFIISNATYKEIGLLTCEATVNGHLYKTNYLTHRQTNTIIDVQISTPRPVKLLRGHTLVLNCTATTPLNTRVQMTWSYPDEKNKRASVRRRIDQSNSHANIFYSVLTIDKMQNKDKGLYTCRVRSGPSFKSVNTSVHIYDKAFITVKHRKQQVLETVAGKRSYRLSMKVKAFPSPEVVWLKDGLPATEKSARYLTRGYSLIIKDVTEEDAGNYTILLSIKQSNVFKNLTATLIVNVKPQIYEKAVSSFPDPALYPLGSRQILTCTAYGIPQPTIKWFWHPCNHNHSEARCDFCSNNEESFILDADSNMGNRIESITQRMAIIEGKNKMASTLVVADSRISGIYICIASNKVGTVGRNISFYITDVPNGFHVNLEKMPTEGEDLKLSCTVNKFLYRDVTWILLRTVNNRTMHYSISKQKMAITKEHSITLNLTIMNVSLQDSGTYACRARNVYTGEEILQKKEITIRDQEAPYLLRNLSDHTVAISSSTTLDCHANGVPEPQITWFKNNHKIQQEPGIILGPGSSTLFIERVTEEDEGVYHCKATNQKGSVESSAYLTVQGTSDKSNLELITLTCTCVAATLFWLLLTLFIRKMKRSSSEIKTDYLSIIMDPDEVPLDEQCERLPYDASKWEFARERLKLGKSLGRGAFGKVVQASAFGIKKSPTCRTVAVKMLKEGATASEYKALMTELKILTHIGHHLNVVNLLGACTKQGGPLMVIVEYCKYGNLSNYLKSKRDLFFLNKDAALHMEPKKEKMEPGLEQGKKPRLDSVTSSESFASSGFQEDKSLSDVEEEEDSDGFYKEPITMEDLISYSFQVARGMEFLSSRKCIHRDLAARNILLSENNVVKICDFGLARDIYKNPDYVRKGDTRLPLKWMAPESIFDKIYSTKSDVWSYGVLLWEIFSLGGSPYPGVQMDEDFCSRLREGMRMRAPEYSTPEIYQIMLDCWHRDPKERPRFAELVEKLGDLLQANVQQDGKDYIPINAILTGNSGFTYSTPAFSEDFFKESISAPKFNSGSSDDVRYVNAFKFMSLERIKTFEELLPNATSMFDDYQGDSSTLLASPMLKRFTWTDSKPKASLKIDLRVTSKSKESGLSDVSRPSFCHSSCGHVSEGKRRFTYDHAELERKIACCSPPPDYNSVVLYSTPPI
Sequence of Platelet-activating factor receptor (P25105 whole entry): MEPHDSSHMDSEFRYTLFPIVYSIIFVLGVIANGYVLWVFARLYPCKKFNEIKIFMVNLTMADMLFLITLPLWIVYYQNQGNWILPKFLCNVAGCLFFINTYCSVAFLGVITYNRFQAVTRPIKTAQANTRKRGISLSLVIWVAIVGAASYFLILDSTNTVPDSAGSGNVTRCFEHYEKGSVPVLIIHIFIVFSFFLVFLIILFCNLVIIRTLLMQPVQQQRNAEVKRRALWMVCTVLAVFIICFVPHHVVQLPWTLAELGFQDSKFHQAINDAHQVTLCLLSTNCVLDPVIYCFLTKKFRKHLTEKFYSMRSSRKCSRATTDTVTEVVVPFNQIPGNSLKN

CCN1CCN(C(=O)N[C@@H](C(=O)N[C@@H]2C(=O)N3[C@@H]2SC(C)(C)[C@@H]3C(=O)O)c2ccccc2)C(=O)C1=O [PIPERACILLIN]
Not Active: IC50 [1] | IC50 [2] | IC50 [3] | IC50 (D(4) dopamine receptor) | IC50 [4] | IC50 [5] | IC50 [6] | IC50 [7] | Ki [7]

O=C(O)c1ccccc1 [BENZOIC ACID]
Not Active: IC50 [1] | IC50 [2] | IC50 [3] | IC50 (D(4) dopamine receptor) | IC50 [4] | IC50 [5] | IC50 [6] | IC50 [7] | Ki [7]

CC[C@H]1OC(=O)[C@H](C)[C@@H](O[C@H]2C[C@@](C)(OC)[C@@H](O)[C@H](C)O2)[C@H](C)[C@@H](O[C@@H]2O[C@H](C)C[C@H](N(C)C)[C@H]2O)[C@](C)(O)C[C@@H](C)C(=O)[C@H](C)[C@@H](O)[C@]1(C)O [ERYTHROMYCIN]
Not Active: IC50 [1] | IC50 [2] | IC50 [3] | IC50 (D(4) dopamine receptor) | IC50 [4] | IC50 [5] | IC50 [6] | IC50 [7] | Ki [7]

c1ccc2c(c1)Nc1ccccc1S2 [PHENOTHIAZINE]
Not Active: IC50 [1] | IC50 [2] | IC50 [3] | IC50 (D(4) dopamine receptor) | IC50 [4] | IC50 [5] | IC50 [6] | IC50 [7] | Ki [7]

CHROMIC CHLORIDE
Not Active: IC50 [1] | Ki [1] | IC50 [2] | Ki [2] | IC50 [3] | Ki [3] | IC50 (D(4) dopamine receptor) | Ki (D(4) dopamine receptor) | IC50 [4] | Ki [4] | IC50 [5] | Ki [5] | IC50 [6] | Ki [6] | IC50 [7] | Ki [7]

Cl.NC[C@H]1CC[C@H](C(=O)Oc2ccc(CCC(=O)O)cc2)CC1 [CETRAXATE HYDROCHLORIDE]
Not Active: IC50 [1] | IC50 [2] | IC50 [3] | IC50 (D(4) dopamine receptor) | IC50 [4] | IC50 [5] | IC50 [6] | IC50 [7] | Ki [7]

O=c1[nH]c2ccccc2c2ccccc12
Not Active: IC50 [1] | IC50 [2] | IC50 [3] | IC50 (D(4) dopamine receptor) | IC50 [4] | IC50 [5] | IC50 [6] | IC50 [7] | Ki [7]

C[C@H](C(=O)O)c1ccc2oc(-c3ccc(F)cc3)nc2c1 [FLUNOXAPROFEN]
Not Active: IC50 [1] | IC50 [2] | IC50 [3] | IC50 (D(4) dopamine receptor) | IC50 [4] | IC50 [5] | IC50 [6] | IC50 [7] | Ki [7]

O=C(O)CNCP(=O)(O)O [GLYPHOSATE]
Not Active: IC50 [1] | IC50 [2] | IC50 [3] | IC50 (D(4) dopamine receptor) | IC50 [4] | IC50 [5] | IC50 [6] | IC50 [7] | Ki [7]

C[N+](C)(C)CCOC(N)=O.[Cl-] [CARBACHOL]
Not Active: IC50 [1] | IC50 [2] | IC50 [3] | Ki (D(4) dopamine receptor) | IC50 [4] | IC50 [5] | IC50 [6] | IC50 [7] | Ki [7]
